Where “and” joins values, the source holds several entries; their conditions need not be identical. Equal values may be shown once.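 The compound was tested at five concentrations on cells cultured in 96-well plates, with a 48-hour exposure period. At the GI50, growth is halved. TGI is the concentration that stops growth completely.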

What all share (experiment): NCI tumour cell line growth inhibition, 48 h
Experiment [1] has as its system U251 CNS.
The subject of experiment [2] is SW-620 colon.
In experiment [3] the test system is HCT-15 colon.
For experiment [4], the system named is SK-MEL-2 melanoma.
Experiment [5] has as its system RXF 393 renal.
In experiment [6] the test system is 786-0 renal.
For experiment [7], the system named is HCC-2998 colon.
The test system of experiment [8] is SF-268 CNS.
The subject of experiment [9] is RPMI-8226 leukemia.
Experiment [10] deals with OVCAR-8 ovarian.

Turning to `Cc1ccccc1-n1c(CCl)nc2ccc(Br)cc2c1=O`, the TGI was found to be 25900 nM in experiment [1]; 8950 nM in [2]; 14400 nM in [3]; 32500 nM in [4]; 26800 nM in experiment [5]; 20600 nM in experiment [6]. Further, the TGI came to 30800 nM in experiment [7], 10800 nM in [8], 71400 nM in [9] and 27100 nM in [10].

As to `COc1cc2c(cc1OCCCN1CCN(C(=S)SCCC(C#N)(c3ccccc3)c3ccccc3)CC1)N=C[C@@H]1CCCN1C2=O`, the GI50 was 405 nM in experiment [1]; 514 nM in experiment [2]; 1680 nM in [3]; 1080 nM in experiment [4]; 192 nM in experiment [5]; 493 nM in experiment [6]. Besides, the GI50 in experiment [7] was 1510 nM; in experiment [8], 386 nM; in experiment [9], 420 nM; in experiment [10] it was 1310 nM. Moreover, the TGI in experiment [1] turned out to be 1430 nM; in [2] it was 1940 nM; in [3], 3480 nM; in experiment [4], 2910 nM; in experiment [5] it was 360 nM; in experiment [6], 1080 nM. The TGI is 2940 nM in experiment [7] and more than 48300 nM in [10].

`CC[C@@H](C)/C=C(C)/C=C/C(=O)c1c(O)c(-c2ccc(O)cc2)cn(OC2CC(=O)CCC(C)OC(=O)CC2O)c1=O` (stereo partly specified): the GI50 in experiment [1] is 373 nM; in experiment [2], 562 nM; in experiment [3], 145 nM; in experiment [4], 489 nM; in experiment [5], 386 nM; in experiment [6] it was 386 nM. The GI50 is 2530 nM in experiment [7], 282 nM in experiment [8], 463 nM in experiment [9] and 354 nM in [10]. In addition, the TGI amounted to 12500 nM in experiment [1]; 16400 nM in [2]; 15800 nM in experiment [3]; 15600 nM in experiment [4]; 17800 nM in experiment [5]; 4090 nM in [6]. Also, the TGI in experiment [7] worked out at 13600 nM; in [8], 9390 nM; in experiment [9], 22900 nM; in [10] it was 22800 nM.

On to `CO/C(=C1/NC(=O)C(Cc2ccc(O)c(Br)c2)N(C)C(=O)C(C)NC(=O)CCC/C=C(\C)CCC(C)OC1=O)c1ccccc1` (stereo unspecified), for which the GI50 was 19.9 nM in experiment [1]; 14.6 nM in [2]; 63.2 nM in experiment [3]; 34.7 nM in [5]; 26.3 nM in experiment [6]; less than 15.4 nM in [7]. Further, the GI50 in experiment [8] was 26.7 nM; in [9], less than 15.5 nM; in experiment [10], 43.7 nM. Besides, the TGI was 90.9 nM in experiment [1]; 33300 nM in experiment [2]; 13400 nM in [3]; 46.9 nM in [4]; 16200 nM in experiment [5]; 69.2 nM in experiment [6]. Also, the TGI in experiment [7] is 311 nM; in experiment [8], 76.7 nM; in experiment [9], 60.7 nM; in [10] it was 6410 nM.

As for `CN(C)C1CN(C(=O)c2cc(-c3ccc4ncnc(N5CCc6cc(F)c(Cl)cc65)c4c3)cnc2N)C1`, the GI50 in [1] is 1340 nM; in experiment [2], 1480 nM; in [3], 495 nM; in experiment [4] it was 1090 nM; in experiment [5] it was 369 nM; in experiment [6], 436 nM. Besides, the GI50 was 710 nM in experiment [7], 652 nM in experiment [8], 489 nM in experiment [9] and 819 nM in [10]. In addition, the TGI in experiment [1] was more than 100000 nM; in [2], more than 100000 nM; in experiment [3], more than 100000 nM; in [4] it was 3770 nM; in [5], 2340 nM; in [6], more than 100000 nM. The TGI in [7] is more than 100000 nM; in experiment [8], more than 100000 nM; in experiment [9] it was 2700 nM; in experiment [10], more than 100000 nM.

`Fc1ccc(N=C2C=CC(=Nc3ccc(F)cc3)c3ccccc32)cc1`: the TGI in [1], in experiment [2], in experiment [3], in [4], in experiment [5] and in [6] was more than 100000 nM in each case. Also, the TGI in experiment [7], in experiment [8], in [9] and in [10] was more than 100000 nM throughout.

`CCC(C)C1NC(=O)C(NC(=O)C(CC(C)C)N(C)C(=O)[C@@H]2CC(O)CN2C(=O)[C@H](C)O)C(C)OC(=O)[C@H](Cc2ccc(OC)cc2)N(C)C(=O)[C@@H]2CCCN2C(=O)[C@H](CC(C)C)NC(=O)C(C)C(=O)[C@H](C(C)C)OC(=O)CC1O` (stereo partly specified): the GI50 in experiment [1] is less than 10 nM; in [2], 58.1 nM; in [3], 315 nM; in [4], less than 10 nM; in [5], less than 10 nM; in experiment [6] it was 76.2 nM. Moreover, the GI50 was less than 10 nM in experiment [7], 45.1 nM in experiment [8], 69.5 nM in experiment [9] and 107 nM in experiment [10]. Further, the TGI in experiment [1] was 1630 nM and 677 nM; in experiment [2] it was 2300 nM and 919 nM; in experiment [3], 12700 nM; in [4], 342 nM and 206 nM; in [5], 481 nM and 112 nM; in experiment [6], 1700 nM and 2280 nM. For the same compound, the TGI in experiment [7] is 637 nM and 399 nM; in experiment [8], 1700 nM and 1040 nM; in experiment [9] it was 1770 nM; in [10], 4380 nM and 2620 nM.

As for `COc1ccc([C@@H]2OC(=O)C3C2C(=O)O[C@H]3c2ccc(OC)cc2)cc1` (stereo partly specified), the TGI in experiment [1], in [2], in experiment [3], in [4], in [5] and in experiment [6] was more than 100000 nM throughout. In addition, the TGI in [7], in [9] and in [10] was more than 100000 nM throughout.

For the origin of these results see PubChem BioAssay (NCI).
